This note sets out measurements from patent US20060084704A1, “Methods and compositions for enhancing degradation of nuclear receptor transcription factors and uses thereof” (priority 2004, published 2006).

One test deals with LNCaP tumor cells. Briefly: In vivo LNCaP xenograft tumor growth in nude mice. To be noted: JC9 100 mg/kg/day ip three times per week, 7 weeks. Here is the method:
In related in vivo studies, LNCap human prostate tumor cells are xenografted by subcutaneous injection (2×10^6 per site) into nude mice. Mice are subsequently treated by intraperitoneal injection of either the vehicle solution alone as a control or the test compounds (JC9)) at a dose of 100 milligrams per kilogram body weight, three times a week for 7 weeks. Tumor volume is measured twice a week over the next 7 weeks. […] Such results can be taken as a strong indication that the suppression of AR activity and the resulting reduction of tumor growth induced by AR-degrading compounds such as JC15 or by JC9, may be translated into a practical use for treating or preventing diseases and disorders related to AR activity, such as prostate and other cancers.
Two million LNCaP tumor cells were inoculated, subcutaneously, into the left flank of nude mice. In the experimental animals, the nude mice were give an intraperitoneal (ip) injection of compound JC9 at 100 mg/kg/day three times per week or with vehicle control only. After 7 weeks of treatment the tumors were excised, weighed and compared. The tumor weight in ratio of vehicle control to JC9 was 0.694 g:0.172 g.

Test [1] deals with T1, mutant Q49 androgen receptor (Homo sapiens, UniProt P10275, INS80QQQQQQQQQQQQQQQQQQQQQQQQQQ).
T1 construct: GFP; expressed in transfected cells; host or cells: COS-1 (monkey kidney)
Briefly: Mutant androgen receptor inclusions in COS-1 cells transfected with GFPARQ49 (fluorescence microscopy). It counts as cell-based. To be noted: COS-1 cells transfected with GFPARQ49, JC9 5 micromolar. Here is the method:
Monkey kidney COS-1 cells were plated at a density of 3×10^4 cells per 0.5-milliliter volume onto alcohol-cleaned and sterilized cover slips placed in 35-millimeter suspension culture dishes containing Dulbecco's modified Eagle's (DME) medium containing 10% FBS. The cells were transfected with plasmids containing either the Q19 (plasmid GFPARQ19) or Q49 (plasmid GFPARQ49) mutant androgen receptor and green fluorescent protein (GFP) as a reporter. For each coverslip, 12.3 microliters SuperFect was added to 3.075 micrograms plasmid in 102.5 microliters DME medium (to give a 1:4 ratio of DNA to SuperFect reagent); the mixture was vortexed briefly, and the complex allowed to form over 15 minutes. Each mixture then received 897 microliters CD/DME and was mixed gently. The resulting 1-milliliter volumes were added to the dishes containing the coverslips (final plasmid concentration was 3.02 micrograms per dish). Cells were allowed to incubate with the transfection solution for 5 hours, then the medium was changed to fresh 1.5 milliliters CD/DME medium with either vehicle (DMSO) only added or JC9 (final concentration 5 micromolar). […] The coverslips were air-dried, mounted on slides with a glycerol-based mounting agent, and stored at 4 degrees Celsius if necessary prior to observation with fluorescence microscopy. […]

For a further test, the system named is LNCaP cells. Briefly: LNCaP growth assay (cell count). It counts as cell-based, human. To be noted: 5 μM. Here is the method:
LNCaP cells express an endogenous mutant AR that is found in prostate cancer patients. This clinically relevant cell model was used to study JC9's effect in suppressing prostate cancer cell growth. Cells were plated at a density of 6.3×10^4 cells/well in 6-well tissue culture dishes. Two days later, the complete medium was aspired and 10% charcoal/dextran-treated (hormone depleted) serum-containing medium was added. Test compounds, JC9 and hydroxyflutamide (HF) were then added to the medium at a final concentration of 5 μM with or without 1 nM of DHT. For vehicle control, the same amount of DMSO was added. For the subsequent 5 days, the medium was aspired once per day, and fresh medium containing test compounds and/or DHT was added. At designated times, a portion of cells was harvested by trypsinization, and cell count was performed using a hemacytometer.

A further test deals with retinoid X receptor. Briefly: Western blot of LNCaP cell lysates, RXR. The following applies: 1 or 2 micromolar, 24 hours, presence or absence of DHT. It counts as cell-based, human. Here is the method: Human prostate cancer LNCaP cells and T47D cells were plated at a density of 7×10^5 cells per 60 millimeter tissue culture dish in […] (RPMI) medium containing 10% FBS. The medium was changed to RPMI or DME medium containing 10% charcoal-stripped serum 24 hours later to deplete cellular androgens or estrogens. After another 24 hours, treatment with the test compounds began. The test dose of JC15 was 1 or 2 micromolar and the test does of JC9 was 1, 5 and 10 micromolar. LNCap cells also received dihydrotestosterone (DHT) (3 nanomolar). Control cells received a corresponding amount of the vehicle, dimethylsulfoxide (DMSO) (<0.04%) for an equivalent exposure time. Cells were incubated with JC15 for 24 or 48 hours, and were lysed in 250 microliters of 1×SDS/PAGE loading buffer. Approximately 40 micrograms of total cellular protein was loaded in each lane of a pre-cast gel (NuPAGE, Invitrogen). Protein separation and transfer were performed following the manufacturer's instructions.
For the prostate cell lysates, androgen receptor (AR) protein was visualized by incubating the resultant membranes with an anti-AR antibody (BD-PharMingen), followed by chemiluminescence detection (ECL Plus, Amersham). […] The resultant protein signals were quantified using densitometry and NIH ImageJ software.

T1 sequence (P10275 with tags, fused parts or gaps with the stated changes): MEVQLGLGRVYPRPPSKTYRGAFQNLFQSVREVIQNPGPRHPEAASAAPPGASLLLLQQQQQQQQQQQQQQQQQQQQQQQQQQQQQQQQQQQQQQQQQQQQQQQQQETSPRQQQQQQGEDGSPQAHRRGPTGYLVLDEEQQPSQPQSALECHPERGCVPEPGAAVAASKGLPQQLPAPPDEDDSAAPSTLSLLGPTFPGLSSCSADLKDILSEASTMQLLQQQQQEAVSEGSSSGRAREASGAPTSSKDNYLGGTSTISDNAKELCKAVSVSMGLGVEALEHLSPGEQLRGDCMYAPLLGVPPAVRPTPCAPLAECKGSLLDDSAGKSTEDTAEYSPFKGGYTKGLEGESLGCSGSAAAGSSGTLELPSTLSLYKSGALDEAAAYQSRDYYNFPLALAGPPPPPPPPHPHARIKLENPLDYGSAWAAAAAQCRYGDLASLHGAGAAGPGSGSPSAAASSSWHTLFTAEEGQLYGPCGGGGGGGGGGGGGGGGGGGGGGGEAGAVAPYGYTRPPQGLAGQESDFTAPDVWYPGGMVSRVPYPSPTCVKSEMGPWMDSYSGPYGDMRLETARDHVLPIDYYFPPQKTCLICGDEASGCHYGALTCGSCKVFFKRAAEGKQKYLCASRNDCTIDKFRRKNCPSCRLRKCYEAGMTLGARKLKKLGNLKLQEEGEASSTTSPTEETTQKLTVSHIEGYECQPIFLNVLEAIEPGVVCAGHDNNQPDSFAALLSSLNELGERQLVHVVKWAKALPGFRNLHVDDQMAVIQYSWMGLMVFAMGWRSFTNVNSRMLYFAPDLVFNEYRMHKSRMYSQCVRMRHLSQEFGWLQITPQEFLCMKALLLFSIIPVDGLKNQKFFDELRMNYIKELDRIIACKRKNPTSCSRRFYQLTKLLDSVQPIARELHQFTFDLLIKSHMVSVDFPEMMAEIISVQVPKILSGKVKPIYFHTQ

As to `COc1ccc(C=CC(=O)C=C(O)C=Cc2ccc(OC)c(OC)c2)cc1OC` [JC9, 5-hydroxy-1,7-bis(3,4-dimethoxyphenyl)-1,4,6-heptatrien-3-one], in the test with LNCaP tumor cells, the “reduction in tumor size compared to vehicle control” value was determined as 75% and the tumor weight was 0.172 g. In addition, in test [1], the “fluorescent inclusions or aggregates of mutant Q49 androgen receptor” value was “substantially smaller amounts of fluorescent inclusions”. Moreover, the “cell growth (cell number) in the presence of DHT” value in the test with LNCaP cells (with 1 nM DHT, 5 days) is “good potency to decrease LNCaP cell growth”. The “cell growth (cell number)” value with LNCaP cells (without DHT, 5-day incubation) is given as “only a minimal number of viable cells”.

In the case of `CCOC(=O)CCC(C(=O)C=Cc1ccc(O)c(OC)c1)C(=O)C=Cc1ccc(O)c(OC)c1` (stereo not drawn) [JC15, 7-(4-hydroxy-3-methoxyphenyl)-4-[3-(4-hydroxy-3-methoxyphenyl)acryloyl]-5-oxo-hept-6-enoic acid ethyl ester], in the test on retinoid X receptor, the “cellular concentration of retinoid X receptor” value is “did not substantially affect”.
